Tests used:
[1] = system: Broadleaf Dock Rumex obtusifolia; experiment: Post-emergence greenhouse herbicide evaluation, Broadleaf Dock; assay type: in vivo; conditions: 560 g ae/ha, 14 days after application, visual injury 0 to 100% vs untreated control
Description: (§1) A peat based potting soil, Metro-mix 360, was used as the soil media for this test. Metro-mix is a growing medium consisting of 35 to 45% specially processed Coconut Coir Pith, 10 to 20% horticultural grade vermiculite, 15 to 25% processed Ash Bark, 20 to 30% choice Canadian Sphagnum Peat Moss and proprietary nutrients and other ingredients. Several seeds of each species were to planted in 10 cm square pots and top watered twice daily. Plant material was propagated in the greenhouse at a constant temperature of 26 to 28° C. and 50 to 60% relative humidity. Natural light was supplemented with 1000-watt metal halide overhead lamps with an average illumination of 500 μE m^−2 s^−1 photosynthetic active radiation (PAR). Day length was 16 hours. Plant material was top-watered prior to treatment and sub-irrigated after treatment. […] The growth stage of the various weed species ranged from 2 to 4 leaf. Treatments were replicated 3 times. Plants were returned to the greenhouse after treatment and sub-watered throughout the duration of the to experiment. Plant material was fertilized twice weekly with Hoagland's fertilizer solution. Percent visual injury assessments were made on a scale of 0 to 100% as compared to the untreated control plants (where 0 is equal to no injury and 100 is equal to complete death of the plant).

Kochia Kochia scoparia = experiment: Post-emergence greenhouse herbicide evaluation, Kochia; assay type: in vivo; conditions: 560 g ae/ha, 14 days after application, visual injury 0 to 100% vs untreated control
Description: as §1

[2] = system: grapes (Vitis labrusca L.); experiment: Volatility evaluation: injury to grapes from vapor exposure; conditions: wheat sprayed at 11200 g ae/ha, 24 hour vapor exposure at 40° C., evaluated 7 days after exposure
Description: Four pots of wheat (Triticum aestivum L.) grown in 4 inch square pots were sprayed at 11200 g ae/ha with each of the different forms of 2,4-D. Treatments were applied with a tracksprayer manufactured by Allen Machine Works. The sprayer utilized an 8002E spray nozzle, spray pressure of 262 kPa pressure and speed of 1.5 mph (2.4 km/h) to deliver 187 L/Ha. The nozzle height was 46 cm above the plant canopy. The growth stage of the wheat was 1 to 2 leaf. The wheat plants were allowed to thoroughly dry to ensure that none of the spray solution was present when they were moved into a clean pot flat. A known sensitive species, grapes (Vitis labrusca L.) were placed at the opposite end of the flat. All of the pots were covered with a humidome with small ½ inch (1.27 cm) diameter holes cut into the end where the wheat was placed and a small box fan powered with a battery in the other end to pull air across the treated wheat plants and over the top of grapes. Plants were placed into a growth chamber with the temperature set at 40° C. with a 14 hour day and a 10 hour night cycle. A 24 hour exposure period was used after which the sensitive plants were then removed and placed in the greenhouse and evaluated for injury from vapor exposure to the treatments.

| Molecule | % Control Broadleaf Dock Rumex obtusifolia [1] [%] | % Control Kochia Kochia scoparia (Kochia Kochia scoparia) [%] | % Injury to grapes from vapor exposure [2] [%] |
| --- | --- | --- | --- |
| CNC.O=C(O)COc1ccc(Cl)cc1Cl [2,4-D dimethylamine (DMA), 2,4-D dimethylamine, reference compound] | 77 | 86 | 78 |
| CCCCOCCOC(=O)COc1ccc(Cl)cc1Cl [2,-4-D butoxyethylester (BEE), 2,-4-D butoxyethylester] | – | – | 100 |
| C[N+](C)(C)C.O=C([O-])COc1ccc(Cl)cc1Cl [Compound 1a] | 77 | 83 | – |
| CC[N+](CC)(CC)CC.O=C([O-])COc1ccc(Cl)cc1Cl [Compound 1b] | 79 | 89 | 0 |
| CCC[N+](CCC)(CCC)CCC.O=C([O-])COc1ccc(Cl)cc1Cl [Compound 1c] | 73 | 83 | – |
| C[N+](C)(C)CCO.O=C([O-])COc1ccc(Cl)cc1Cl [Compound 1e] | 68 | 86 | – |
| C[N+](C)(C)C.O=C([O-])COc1nc(Cl)c(Cl)cc1Cl [Compound 2a] | 85 | 79 | – |
| CC[N+](CC)(CC)CC.O=C([O-])COc1nc(Cl)c(Cl)cc1Cl [Compound 2b] | 79 | 88 | 6 |
| CCC[N+](CCC)(CCC)CCC.O=C([O-])COc1nc(Cl)c(Cl)cc1Cl [Compound 2c] | 79 | 95 | – |
| COc1c(Cl)ccc(Cl)c1C(=O)[O-].C[N+](C)(C)C [Compound 4a] | – | – | 12 |
| CCN(CC)CC.O=C(O)COc1nc(Cl)c(Cl)cc1Cl [Triclopyr triethylamine (TEA), Triclopyr triethylamine, reference compound] | 81 | 91 | 57 |
| Dicamba DMA | – | – | 70 |

Source: US20160015033A1, “COMPOUNDS DERIVED FROM HERBICIDAL CARBOXYLIC ACIDS AND TETRAALKYLAMMONIUM OR (ARYLALKYL)TRIALKYLAMMONIUM HYDROXIDES” (DOW AGROSCIENCES LLC, priority 2014, published 2016)
